According to patent US9663448B2, “Tri-aryl compounds and compositions comprising the same” (BEN-GURION UNIVERSITY OF THE NEGEV RESEARCH AND DEVELOPMENT …, priority 2007, dated 2017):

Assay: Solubility noted at work-up of the synthesis
Assay type: physicochemical
Settings: qualitative remark
Description: 1,1,1-tris(4-hydroxyphenyl)ethane (1.53 gr, 5 mM), formaldehyde (1.35 gr, 45 mM) and 1-methyl piperazine (2.5 ml, 50 mM) in 20 ml water and 25 ml EtOH were refluxed for 3 hours. Evaporation provided a solid that by TLC and NMR contained 2 products, which was not the starting material. Formaldehyde (0.75 gr, 25 mM) and 1-methyl piperazine (1.5 ml, 30 mM) were added to 5 ml water and 10 ml EtOH and the reaction was refluxed for 4 hours. Evaporation and workup gave 3.3 gr light yellow-white solid, 67% yield, mp. […].

- solubility in ethanol (solvent ethanol): Soluble
- solubility in water (solvent water): very good solubility
SMILES: CN1CCN(Cc2cc(C(C)(c3cc(CN4CCN(C)CC4)c(O)c(CN4CCN(C)CC4)c3)c3cc(CN4CCN(C)CC4)c(O)c(CN4CCN(C)CC4)c3)cc(CN3CCN(C)CC3)c2O)CC1 [VIII]
